Data set [1] can be described thus: Reaction of Compound A powder with formaldehyde vapour, related substances by HPLC (Experiment 2). The format is physicochemical. The note with it: 50° C. for 14 days. The procedure: When Compound A powder (2 mg) was stored in a sealed stoppered glass test tube together with a cup containing an aqueous formaldehdye solution (1 ml) in various concentrations (see FIG. 2), and stored at 50° C. for 14 days, the generated amount of related substances of Compound A was measured. The generated amount of the related substances was measured by dissolving Compound A powder (2 mg) in methanol (200 ml) to give a test solution, and applying 10 μl thereof to high performance liquid chromatograph under the following conditions. The percentage ratio of the peak area of the related substances to the total peak area including that of Compound A was regarded as the generation amount thereof.
Conditions for High Performance Liquid Chromatograph:
Column: Develosil ODS-5 (inner diameter: 4.6 mm×150 mm, manufactured by NOMURA CHEMICAL CO., LTD.)
Mobile phase: Mixture of 0.01M citric acid buffer (pH 2.5):acetonitrile (75:25)
Detector: Ultraviolet-visible spectrophotometer (wave length for detection: 220 nm)
Temperature: Constant temperature around 40° C.

Data set [2] is described as follows: Absorption of aldehyde by stabilizer (Experiment 4). The format is physicochemical. The note with it: for Residual rate of formaldehyde in the cup: 25° C. for 2 days, 1 g meglumine powder enclosed. As for the experimental part: Meglumine powder (1 g) was stored in a sealed stoppered glass test tube together with a cup containing an aqueous formaldehyde solution (2 ml) (containing potassium iodide for adjusting moisture) in various concentrations (see FIG. 4). For a comparative control, a cup containing an aqueous formaldehyde solution (2 ml) (containing potassium iodide for adjusting moisture) in various concentrations was put into a sealed stoppered glass test tube without meglumine. The test tubes were stored at 25° C. or 40° C. for 2 days, and the residual amount of formaldehyde in the cup was measured in a similar manner to Experiment 1.

On to `C[C@H](Cc1c[nH]c2c(OCC(=O)O)cccc12)NC[C@H](O)c1cccc(Cl)c1` [Compound A, [3-[(2R)-[[(2R)-(3-chlorophenyl)-2-hydroxyethyl]amino]propyl]-1H-indol-7-yleoxy]acetic acid], for which the “Generated amount of related substances” value in data set [1] (aldehyde concentration in the cup: Not detected) is listed as “Not detected”; in data set [1] (aqueous formaldehyde in the cup 0.0625 μg/ml), “Not detected”; in data set [1] (aqueous formaldehyde in the cup 0.125 μg/ml), 0.031%; in data set [1] (aqueous formaldehyde in the cup 0.25 μg/ml) it was 0.063%; in data set [1] (aqueous formaldehyde in the cup 0.5 μg/ml), 0.091%; in data set [1] (aqueous formaldehyde in the cup 1.0 μg/ml) it was 0.136%.
With `CNC[C@H](O)[C@@H](O)[C@H](O)[C@H](O)CO` [meglumine], the “Residual ratio of formaldehyde in the cup compared to without meglumine (in words)” value in data set [2] (after storage) is reported as “apparently lowered”. Also, the “Residual rate of formaldehyde in the cup” value in data set [2] (formaldehyde 0.1 μg/ml) stood at 85.1%; in data set [2] (formaldehyde 0.5 μg/ml) it was 75.5%; in data set [2] (formaldehyde 1 μg/ml), 70.7%.

(Values after patent US20050267222A1, “Stabilized composition” (DAINIPPON PHARMACEUTICAL CO. LTD., priority 2002, published 2005).)
